# Measured values: patent publication US6171786A, “Methods for preventing multidrug resistance in cancer cells” (priority 1996, dated 2001)
# “Also recorded” adds a separate entry of the source. Like-named read-outs stand apart in the source and are kept apart here.
# Tests used:
# MDR1 expression [1] = assay: Inhibition of cytotoxic drug-induced MDR1 expression by protein kinase inhibitors (cDNA-PCR); conditions: for inhibition of MDR1 induction by cytotoxic drugs: concentration not stated
# Method: Cells were plated in 6-well Falcon tissue culture plates at 3,300 cells per well, and incubated in the appropriate concentrations of drugs. Each of the protein kinase inhibitors to be tested were added at the appropriate final concentration 45 minutes prior to MDR1 induction by the addition of Ara-C or TPA, with the exception of herbimycin A, which was added 12 hours prior to Ara-C or TPA, and tyrphostins A25 and B46, which were each added 16 hours prior to MDR1 induction by the addition of Ara-C or TPA. Cells were incubated overnight (TPA) or for 10 hours (Ara-C) at 37° C./ 5% CO2 after the addition of the MDR1 inducing agents before harvesting for cDNA-PCR analysis.
# In addition, the analysis of certain drugs imposed added requirements. For experiments using calphostin C, cells were incubated under direct white light illumination. For experiments using D,L-threo-sphingosine, the cell culture medium was pre-treated with the appropriate concentration of the drug for one hour at 37° C. with continuous gentle mixing. After this pretreatment, cells were resuspended in media supplemented with drug and incubated for 45 minutes as described above.
# To further evaluate the capacity of protein kinase inhibitors to suppress MDR1 induction by cytotoxic drugs and PKC agonists, H-9 human T-cell leukemia cells were used in cDNA-PCR assays to examine induced MDR1 mRNA expression levels in the presence of protein kinase inhibitors.
# [2] = system: MDR1 expression (P-glycoprotein); assay: Induction of MDR1 expression by cytotoxic drugs (dye efflux, UIC2, cDNA-PCR); type: cell-based, human
# Method: (§1) (Commercially-available kits (for example, from GIBCO/BRL, Gaithersburg, Md.) can be advantageously modified for making cDNA using random hexamers.) PCR is then performed using the following primers: […]
# (§2) (where β2 M represents β2 microglobulin). PCR was performed for β2 M experiments under a regime consisting of 1 cycle comprising denaturation at 94° C. for 3 minutes, primer annealing at 60° C. for 30 seconds, and primer extension at 72° C. for 1 minute, followed by 19 cycles comprising denaturation at 94° C. for 30 seconds, primer annealing at 60° C. for 30 seconds, and primer extension at 72° C. for 1 minute, followed by a final cycle comprising denaturation at 94° C. for 30 seconds, primer annealing at 60° C. for 30 seconds, and primer extension at 72° C. for 5 minutes. MDR1 cDNA sequences were amplified using the identical protocol as for β2 M, but extending the amplification from 19 cycles to 25 cycles. In addition, the cDNA-PCR amplification protocol contained the following modifications: (i) Taq DNA polymerase was added to the PCR mixtures after initial heating of the samples to 94° C. (ii) The yield of the β2 -microglobulin-specific band, obtained after 22-28 cycles of PCR, was used as the primary criterion for equalizing the starting amounts of the cDNA templates in different preparations, in order to account for differential RNA degradation in cells subjected to different types of treatment. ^32 P-labeled PCR products were detected by autoradiography.
# In particular PKC is activated by treatment with Ara-C. Therefore, experiments were performed to test whether Ara-C, which is not transported by P-glycoprotein, would have any effect on P-glycoprotein function in K562 leukemia cells.
# Also assayed was whether drug-induced MDR1 expression was maintained after cytotoxic drug treatment. […] At different times, MDR1 expression in the surviving cells was analyzed by dye efflux and immunofluorescence labeling with UIC2 (FIG. 3C) or by cDNA-PCR (FIG. 4E).
# MDR1 expression [3] = assay: Inhibition of cytotoxic drug-induced MDR1 expression by cytoplasmic calcium antagonists and calmodulin inhibitors; type: cell-based, human; conditions: H9; for inhibition of AraC-induced MDR1 gene expression: 10 μM calmidazolium chloride, 25 μM AraC
# Method: H9 cells were incubated as described above in the presence of the following cytotoxic drugs: Ara C (at a concentration of 25 μM), Adriamycin (2 μM), bleomycin (100 μg/ml), 2-deoxyglucose (10 mM) and nocodazole (2.5 μM). In parallel, cultures of H9 cells were incubated in the presence of each of these cytotoxic drugs and of a highly specific chelator of intracellular calcium ion, 1, 2-bis(o-aminophenoxy)-ethane-N,N,N',N'-tetraacetic acid, tetra(acetoxymethyl)-ester (BAPTA/AM) at a concentration of 5 μM for 10 hrs. under the conditions described above. The inhibitor was added 45 min. prior to the addition of each of the MDR1 inducing agents. cDNA-PCR analysis, including gel electrophoresis and autoradiography as described above, was performed for each culture after drug treatment in the presence or absence of this chelator.
# H9 cells were incubated as above with 25 μM AraC in the presence or absence of 10 μM calmidazolium chloride, and cDNA-PCR analysis as described above was performed.
# [4] = system: MDR1 expression (P-glycoprotein); assay: MDR1/P-glycoprotein expression in human cells treated with TPA, DOG, other agents (Rh123 accumulation, UIC2 staining, cDNA-PCR); type: cell-based
# Method: KG1 cell line was maintained in Iscove's modified Dulbecco medium with 20% fetal calf serum (FCS) and 2 mM L-glutamine, 100 units/mL penicillin and 100 μg/mL streptomycin (GIBCO Laboratories, Grand Island, N.Y.).
# PBL were treated with 1 ng/mL TPA; H9 and K562 cells with 10 ng/mL TPA; KG1a and KG1 cells with 100 ng/mL TPA and the other cell lines with 10 ng/mL TPA.
# Mouse IgG2a isotype control antibody was obtained from Sigma. For staining of PBL with UIC2 mAb or isotype control, 10^6 cells were stained at 4° C. with 10 μg of the antibody for 30 minutes and, after two washes, stained for 30 minutes with 10 μg of FITC-conjugated goat anti-mouse IgG2a antibody (Fisher Scientific, Fairlawn, N.J.), diluted 1:2 with PBS plus 2% FCS. Cells were then washed twice with ice-cold PBS plus 2% FCS, stained with PI and kept on ice until analysis. Essentially the same protocol was used for staining of other cell types except that 2 μg of the secondary antibody were used per 10^6 cells. In some experiments, phycoerythrine (PE)-conjugated goat anti-mouse IgG2a was used as the secondary antibody; no PI was added in such cases.
# as §1, §2
# A functional assay was used to detect changes in P-glycoprotein activity in human PBL treated with different agents that induce lymphoid differentiation or activation, based on flow cytometric analysis of cellular accumulation of Rh123, which is a P-glycoprotein-transported fluorescent mitochondrial dye. In this assay, cells expressing little or no P-glycoprotein stain brightly with Rh123, whereas cells with higher levels of P-glycoprotein activity appear Rh123-dull. […] Since the best-known cellular effect of TPA is the stimulation of PKC, DOG (a cell-permeable diacylglycerol and a physiological stimulant of PKC) was also tested to determine its effects on Rh123 accumulation in PBL.
# [5] = human leukemia and solid-tumor derived cell lines, short-term exposure
# [6] = 50-100 μM tyrphostin, H-9 cells
structure (smiles),measurement,setting,value
"CCCCCCCCCCCCC/C=C/[C@H](O)[C@@H](N)CO (relative stereo) [D,L-threo-sphingosine]",inhibition of Ara-C induced MDR1 expression,"MDR1 expression [1]; 5 μM D,L-threo-sphingosine",little or no capacity to inhibit Ara-C induced MDR1 expression; also recorded: ineffective
same,Inhibition of Ara-C induced MDR1 expression,"MDR1 expression [1]; 5 μM, H-9, 25 μM Ara-C 10 h",-
O=c1[nH]cc(F)c(=O)[nH]1 [5-fluorouracil],MDR1 induction,[2],"MDR1 induction, both at the mRNA and at the protein levels, was observed"
"COc1cccc2c1C(=O)c1c(O)c3c(c(O)c1C2=O)C[C@@](O)(C(=O)CO)C[C@@H]3O[C@H]1C[C@H](N)[C@H](O)[C@H](C)O1 [Adriamycin, Doxorubicin]",Rh123 or DiOC2(3) efflux by treated cells,[2]; K562,3-10%
same,MDR1 mRNA expression,"[2]; K562, cDNA-PCR",induce MDR1 mRNA expression
same,maintenance of MDR1 expression after removal of drug,"[2]; K562 subpopulation, treated 3-5 days then drug-free",maintained for a least several weeks
same,MDR1 mRNA expression,[2]; KB-3-1 epidermoid carcinoma,MDR1 mRNA expression was induced
same,MDR1 induction,[2]; [5],"MDR1 induction, both at the mRNA and at the protein levels, was observed"
"CC(=O)OCOC(=O)CN(CC(=O)OCOC(C)=O)c1ccccc1OCCOc1ccccc1N(CC(=O)OCOC(C)=O)CC(=O)OCOC(C)=O [BAPTA/AM, 1,2-bis(o-aminophenoxy)ethane-N,N,N',N'-tetraacetic acid, tetra(acetoxymethyl)ester]",inhibition of MDR1 induction by 2-deoxyglucose (10 mM),MDR1 expression [3]; 5 μM BAPTA/AM,completely abrogate the induction of MDR1 expression
same,inhibition of MDR1 induction by Adriamycin (2 μM),MDR1 expression [3]; 5 μM BAPTA/AM,completely abrogate the induction of MDR1 expression
same,inhibition of MDR1 induction by Ara C (25 μM),MDR1 expression [3]; 5 μM BAPTA/AM,completely abrogate the induction of MDR1 expression
same,inhibition of MDR1 induction by bleomycin (100 μg/ml),MDR1 expression [3]; 5 μM BAPTA/AM,completely abrogate the induction of MDR1 expression
same,inhibition of MDR1 induction by different cytotoxic agents,MDR1 expression [3]; 5 μM BAPTA/AM,completely abrogated the induction of MDR1 expression
same,inhibition of MDR1 induction by nocodazole (2.5 μM),MDR1 expression [3]; 5 μM BAPTA/AM,completely abrogate the induction of MDR1 expression
same,time prior to addition of MDR1 inducers within which inhibitory effect was detectable,MDR1 expression [3]; BAPTA/AM,≤ 3 h
"CCCCCCCC(=O)OCC(CO)OC(=O)CCCCCCC (centres unmarked) [DOG, 1,2-dioctanoylglycerol]",effect on P-glycoprotein activity (Rh123 accumulation),[4]; human PBL,decrease Rh123 accumulation
same,MDR1 gene expression,[4]; normal human PBL and leukemia/solid tumor cell lines,increase MDR1 gene expression
CC1CNCCN1S(=O)(=O)c1cccc2cnccc12 (centres unmarked) [H7],prevention of MDR1 induction by chemotherapeutic drugs,MDR1 expression [1],prevent MDR1 induction by chemotherapeutic drugs
same,inhibition of MDR1 induction by cytotoxic drugs,MDR1 expression [1],capable of inhibiting MDR1 induction by cytotoxic drugs
Clc1ccc(C(c2ccc(Cl)cc2)n2cc[n+](CC(OCc3ccc(Cl)cc3Cl)c3ccc(Cl)cc3Cl)c2)cc1 (centres unmarked) [calmidazolium chloride],inhibition of AraC-induced MDR1 gene expression,MDR1 expression [3],inhibit AraC-induced MDR1 gene expression
same,inhibition of AraC-induced MDR1 gene expression,MDR1 expression [3]; listed as Calmidazolium chloride,efficiently abrogate AraC induction of MDR1 expression
COc1c(CC(C)OC(=O)Oc2ccc(O)cc2)c2c3c(CC(C)OC(=O)c4ccccc4)c(OC)c(=O)c4c(O)cc(OC)c(c5c(OC)cc(O)c(c1=O)c52)c43 (centres unmarked) [calphostin C],inhibitory capacity on Ara-C induced MDR1 expression,MDR1 expression [1]; 0.1 μM calphostin C + white light,greatly reduced
same,inhibition of Ara-C induced MDR1 expression,MDR1 expression [1]; 1 μM calphostin C + white light,capable of inhibiting MDR1 expression; also recorded: prevent MDR1 induction by chemotherapeutic drugs
same,inhibition of MDR1 induction by cytotoxic drugs,MDR1 expression [1],capable of inhibiting MDR1 induction by cytotoxic drugs
N.N.[Cl][Pt][Cl] [cisplatin],Rh123 or DiOC2(3) efflux by treated cells,[2]; K562,3-10%
same,MDR1 mRNA expression,"[2]; K562, cDNA-PCR",induce MDR1 mRNA expression
same,MDR1 induction,[2]; [5],"MDR1 induction, both at the mRNA and at the protein levels, was observed"
COc1cccc2c1C(=O)c1c(O)c3c(c(O)c1C2=O)C[C@@](O)(C(C)=O)C[C@@H]3O[C@H]1C[C@H](N)[C@H](O)[C@H](C)O1 [daunorubicin],MDR1 induction,[2],"MDR1 induction, both at the mRNA and at the protein levels, was observed"
same,MDR1 mRNA expression,[2],induce MDR1 mRNA expression
same,Rh123 or DiOC2(3) efflux by treated cells,[2],3-10%
COc1cc([C@@H]2c3cc4c(cc3[C@@H](O[C@@H]3O[C@@H]5CO[C@@H](C)O[C@H]5[C@H](O)[C@H]3O)[C@H]3COC(=O)[C@H]23)OCO4)cc(OC)c1O [etoposide],MDR1 induction,[2],"MDR1 induction, both at the mRNA and at the protein levels, was observed"
O=c1c(-c2ccc(O)cc2)coc2cc(O)cc(O)c12 [genistein],Inhibition of Ara-C induced MDR1 expression,MDR1 expression [1],+
same,inhibition of Ara-C induced MDR1 expression,MDR1 expression [1],only weakly inhibited Ara-C induced MDR1 expression
COC1C=CC=C(C)C(=O)NC2=CC(=O)C=C(C2=O)C(OC)C(C)CC(OC)C(OC)C(C)C=C(C)C1OC(N)=O (centres unmarked) [herbimycin A],inhibition of Ara-C induced MDR1 expression,MDR1 expression [1]; 0.35-3 μM herbimycin A,little or no capacity to inhibit Ara-C induced MDR1 expression; also recorded: ineffective at inhibiting MDR1 induction by Ara-C
NC(=O)NO [hydroxyurea],MDR1 induction,[2],"MDR1 induction, both at the mRNA and at the protein levels, was observed"
same,MDR1 mRNA expression,[2],induce MDR1 mRNA expression
same,Rh123 or DiOC2(3) efflux by treated cells,[2]; K562,3-10%
CN(Cc1cnc2nc(N)nc(N)c2n1)c1ccc(C(=O)N[C@@H](CCC(=O)O)C(=O)O)cc1 [methotrexate],MDR1 induction,[2],"MDR1 induction, both at the mRNA and at the protein levels, was observed"
same,maintenance of MDR1 expression after removal of drug,[2],maintained for a least several weeks
N#CC(C#N)=Cc1cc(O)c(O)c(O)c1 [tyrphostin A25],inhibition of Ara-C induced MDR1 expression,MDR1 expression [1]; [6],strongly inhibit Ara-C induced MDR1 expression; also recorded: inhibit Ara-C induced MDR1 expression
N#CC(=Cc1ccc(O)c(O)c1)C(=O)NCCCc1ccccc1 [tyrphostin B46],inhibition of Ara-C induced MDR1 expression,MDR1 expression [1]; [6],strongly inhibit Ara-C induced MDR1 expression; also recorded: inhibit Ara-C induced MDR1 expression
